Experimental data as given in patent US20230146455A1, “TREATMENT OF INFLAMMATORY DISEASES WITH PEPTIDES AND PHARMACEUTICAL COMPOSITIONS” (Yuyu Pharma, Inc., priority 2020, published 2023).
Several values for one entry are separate records, joined by “and”; a condition that tells them apart may be missing. Identical values can stand only once. Where a SMILES comes first, the peptide text is derived from it. [ ]: non-standard residue; d: D form. Hyp = O=C(O)[C@@H]1C[C@@H](O)CN1

System: CCL5/RANTES
Test: Example 9 Luminex, LPS hPBMCs: CCL5/RANTES
Assay type: cell-based, human
Experimental: Treatment Human PBMCs were pretreated with YY-101, YDE-011 and YDE-043 or reference compound; Xiidra® at various concentration (ranging from 1 nM to 100 uM) for 2 h before stimulation. An equal volume of 0.5% DMSO was used as a vehicle control. Then, the cells were treated with LPS at 5 ug/ml. The supernatants from treated cells were harvested at 24 h and placed in a 96 well for Luminex cytokine & chemokine profiling using a Luminex 200 multiplex assay (Luminex; R&D system, USA).
The main study arm with triplicate wells per group in a 24-well plate: • 1. Blank • 2. PBMC: 0.5% DMSO • 3. PBMC+LPS (5 ug/ml) • 4. PBMC+YY-101 100 uM • 5. PBMC+YY-101 10 uM • 6. PBMC+YY-101 1 uM • 7. PBMC+YY-101 0.1 uM • 8. PBMC+YY-101 0.01 uM • 9. PBMC+LPS (5 ug/ml)+Xiidra®100 uM • 10. PBMC+LPS (5 ug/ml)+Xiidra® 10 uM • 11. PBMC+LPS (5 ug/ml)+Xiidra® 1 uM • 12. PBMC+LPS (5 ug/ml)+Xiidra®0.1 uM • 13. PBMC+LPS (5 ug/ml)+Xiidra®0.01 uM • 14. PBMC+LPS (5 ug/ml)+Xiidra®0.001 uM • 15. PBMC+LPS (5 ug/ml)+YY-101 100 uM • 16. PBMC+LPS (5 ug/ml)+YY-101 10 uM • 17. PBMC+LPS (5 ug/ml)+YY-101 1 uM • 18. PBMC+LPS (5 ug/ml)+YY-101 0.1 uM • 19. PBMC+LPS (5 ug/ml)+YY-101 0.01 uM • 20. PBMC+LPS (5 ug/ml)+YY-101 0.001 uM • 21. PBMC+LPS (5 ug/ml)+YDE-011 100 uM • 22. PBMC+LPS (5 ug/ml)+YDE-011 10 uM • 23. PBMC+LPS (5 ug/ml)+YDE-011 1 uM • 24. PBMC+LPS (5 ug/ml)+YDE-011 0.1 uM • 25. PBMC+LPS (5 ug/ml)+YDE-011 0.01 uM • 26. PBMC+LPS (5 ug/ml)+YDE-011 0.001 uM • 27. PBMC+LPS (5 ug/ml)+YDE-043 100 uM • 28. PBMC+LPS (5 ug/ml)+YDE-043 10 uM • 29. PBMC+LPS (5 ug/ml)+YDE-043 1 uM • 30. PBMC+LPS (5 ug/ml)+YDE-043 0.1 uM • 31. PBMC+LPS (5 ug/ml)+YDE-043 0.01 uM • 32. PBMC+LPS (5 ug/ml)+YDE-043 0.001 uM
Multiplex assay was used to measure 30 cytokines and chemokines. The 1:2, 1:10 and 1:200 diluted cell supernatant and serial dilution of the standard were dispensed into a 96 well plate at 50 ul/well. Then, the pre-mixed cocktail of antibody-coated magnetic beads was dispensed at 50 ul/well and incubated at room temperature for 2 h in a horizontal orbital microplate shaker at 800±500 rpm. The beads were washed using a magnetic device to prevent loss. The biotin-antibody was dispensed in 50 ul of each well and incubated at room temperature for 1 h in a shaker at 800±500 rpm. After washing, streptavidin-PE was added at 50 ul/well and incubated at room temperature for 30 min in a shaker under the same conditions. Finally, after washing, wash buffer (100 ul/well) was added to the plate and incubated in a shaker for 2 min. The Luminex™ 200 setting were set according to the manufacturer's protocol. The data was calculated with a standard five-parameter logistic nonlinear regression analysis of the data (xPonent software 4.2, USA). The levels of cytokine/chemokine are normalized to the live cell counts (1×10^5 cells/mL) and presented as concentrations per mL (pg/mL or ng/mL).

[1] = PBMC + LPS(5 ug/ml), test article 0.001 uM, Mean
[2] = PBMC + LPS(5 ug/ml), test article 0.001 uM, single replicates (1st, 2nd, 3rd)
[3] = PBMC + LPS(5 ug/ml), test article 0.01 uM, Mean
[4] = PBMC + LPS(5 ug/ml), test article 0.01 uM, single replicates (1st, 2nd, 3rd)
[5] = PBMC + LPS(5 ug/ml), test article 0.1 uM, Mean
[6] = PBMC + LPS(5 ug/ml), test article 0.1 uM, single replicates (1st, 2nd, 3rd)
[7] = PBMC + LPS(5 ug/ml), test article 1 uM, Mean
[8] = PBMC + LPS(5 ug/ml), test article 1 uM, single replicates (1st, 2nd, 3rd)
[9] = PBMC + LPS(5 ug/ml), test article 10 uM, Mean
[10] = PBMC + LPS(5 ug/ml), test article 10 uM, single replicates (1st, 2nd, 3rd)
[11] = PBMC + LPS(5 ug/ml), test article 100 uM, Mean
[12] = PBMC + LPS(5 ug/ml), test article 100 uM, single replicates (1st, 2nd, 3rd)
[13] = PBMC without LPS, test article 0.01 uM, Mean
[14] = PBMC without LPS, test article 0.01 uM, single replicates (1st, 2nd)
[15] = PBMC without LPS, test article 0.1 uM, Mean
[16] = PBMC without LPS, test article 0.1 uM, single replicates (1st, 2nd)
[17] = PBMC without LPS, test article 1 uM, Mean
[18] = PBMC without LPS, test article 1 uM, single replicates (1st, 2nd)
[19] = PBMC without LPS, test article 10 uM, Mean
[20] = PBMC without LPS, test article 10 uM, single replicates (1st, 2nd)
[21] = PBMC without LPS, test article 100 uM, Mean
[22] = PBMC without LPS, test article 100 uM, single replicates (1st, 2nd)

SMILES: CC(C)C[C@H](NC(=O)CNC(=O)[C@H](CC(=O)O)NC(=O)[C@H](CCC(N)=O)NC(=O)CNC(=O)[C@@H]1C[C@@H](O)CN1)C(=O)N[C@@H](C)C(=O)NCC(=O)N1CCC[C@H]1C(=O)N[C@@H](CCCCN)C(=O)O [YY-101] (H-[Hyp]GQDGLAGPK-OH; N-terminus and C-terminus assumed)
- Concentration (CCL5/RANTES) [1]: 402.3 pg/mL
- MFI (Bead name: CCL5/RANTES) [1]: 1103.2
- conc/live cell (CCL5/RANTES) [1]: 62.7 pg/10^5
- Concentration (CCL5/RANTES) [2]: 407.4 pg/mL and 412.9 pg/mL and 386.6 pg/mL
- MFI (Bead name: CCL5/RANTES) [2]: 1120.5 and 1139.5 and 1049.5
- conc/live cell (CCL5/RANTES) [2]: 71.5 pg/10^5 and 58.2 pg/10^5 and 58.6 pg/10^5
- Concentration (CCL5/RANTES) [3]: 454.1 pg/mL
- MFI (Bead name: CCL5/RANTES) [3]: 1281.8
- conc/live cell (CCL5/RANTES) [3]: 73.6 pg/10^5
- Concentration (CCL5/RANTES) [4]: 476.2 pg/mL and 443.9 pg/mL and 442.2 pg/mL
- MFI (Bead name: CCL5/RANTES) [4]: 1358.5 and 1246.5 and 1240.5
- conc/live cell (CCL5/RANTES) [4]: 74.4 pg/10^5 and 74.0 pg/10^5 and 72.5 pg/10^5
- Concentration (CCL5/RANTES) [5]: 428.0 pg/mL
- MFI (Bead name: CCL5/RANTES) [5]: 1191.5
- conc/live cell (CCL5/RANTES) [5]: 73.5 pg/10^5
- Concentration (CCL5/RANTES) [6]: 432.4 pg/mL and 427.1 pg/mL and 424.5 pg/mL
- MFI (Bead name: CCL5/RANTES) [6]: 1206.5 and 1188.5 and 1179.5
- conc/live cell (CCL5/RANTES) [6]: 69.7 pg/10^5 and 82.1 pg/10^5 and 68.5 pg/10^5
- Concentration (CCL5/RANTES) [7]: 430.6 pg/mL
- MFI (Bead name: CCL5/RANTES) [7]: 1200.7
- conc/live cell (CCL5/RANTES) [7]: 66.2 pg/10^5
- Concentration (CCL5/RANTES) [8]: 456.2 pg/mL and 419.3 pg/mL and 416.4 pg/mL
- MFI (Bead name: CCL5/RANTES) [8]: 1289.0 and 1161.5 and 1151.5
- conc/live cell (CCL5/RANTES) [8]: 72.4 pg/10^5 and 59.1 pg/10^5 and 67.2 pg/10^5
- Concentration (CCL5/RANTES) [9]: 430.1 pg/mL
- MFI (Bead name: CCL5/RANTES) [9]: 1198.8
- conc/live cell (CCL5/RANTES) [9]: 65.2 pg/10^5
- Concentration (CCL5/RANTES) [10]: 422.8 pg/mL and 449.1 pg/mL and 418.4 pg/mL
- MFI (Bead name: CCL5/RANTES) [10]: 1173.5 and 1264.5 and 1158.5
- conc/live cell (CCL5/RANTES) [10]: 70.5 pg/10^5 and 70.2 pg/10^5 and 55.1 pg/10^5
- Concentration (CCL5/RANTES) [11]: 336.7 pg/mL
- MFI (Bead name: CCL5/RANTES) [11]: 881.7
- conc/live cell (CCL5/RANTES) [11]: 58.5 pg/10^5
- Concentration (CCL5/RANTES) [12]: 334.7 pg/mL and 330.4 pg/mL and 345.1 pg/mL
- MFI (Bead name: CCL5/RANTES) [12]: 875.0 and 860.5 and 909.5
- conc/live cell (CCL5/RANTES) [12]: 53.1 pg/10^5 and 53.3 pg/10^5 and 69.0 pg/10^5
- Concentration (CCL5/RANTES) [13]: 36.8 pg/mL
- MFI (Bead name: CCL5/RANTES) [13]: 52.0
- conc/live cell (CCL5/RANTES) [13]: 7.4 pg/10^5
- Concentration (CCL5/RANTES) [14]: 27.5 pg/mL and 46.1 pg/mL
- MFI (Bead name: CCL5/RANTES) [14]: 37.5 and 66.5
- conc/live cell (CCL5/RANTES) [14]: 5.3 pg/10^5 and 9.6 pg/10^5
- Concentration (CCL5/RANTES) [15]: 36.2 pg/mL
- MFI (Bead name: CCL5/RANTES) [15]: 50.5
- conc/live cell (CCL5/RANTES) [15]: 7.1 pg/10^5
- Concentration (CCL5/RANTES) [16]: 31.7 pg/mL and 40.7 pg/mL
- MFI (Bead name: CCL5/RANTES) [16]: 43.5 and 57.5
- conc/live cell (CCL5/RANTES) [16]: 7.2 pg/10^5 and 7.0 pg/10^5
- Concentration (CCL5/RANTES) [17]: 35.3 pg/mL
- MFI (Bead name: CCL5/RANTES) [17]: 49.0
- conc/live cell (CCL5/RANTES) [17]: 6.4 pg/10^5
- Concentration (CCL5/RANTES) [18]: 33.0 pg/mL and 37.6 pg/mL
- MFI (Bead name: CCL5/RANTES) [18]: 45.5 and 52.5
- conc/live cell (CCL5/RANTES) [18]: 6.0 pg/10^5 and 6.8 pg/10^5
- Concentration (CCL5/RANTES) [19]: 79.0 pg/mL
- MFI (Bead name: CCL5/RANTES) [19]: 136.0
- conc/live cell (CCL5/RANTES) [19]: 12.5 pg/10^5
- Concentration (CCL5/RANTES) [20]: 109.6 pg/mL and 48.3 pg/mL
- MFI (Bead name: CCL5/RANTES) [20]: 201.5 and 70.5
- conc/live cell (CCL5/RANTES) [20]: 17.1 pg/10^5 and 7.9 pg/10^5
- Concentration (CCL5/RANTES) [21]: 67.1 pg/mL
- MFI (Bead name: CCL5/RANTES) [21]: 107.0
- conc/live cell (CCL5/RANTES) [21]: 10.1 pg/10^5
- Concentration (CCL5/RANTES) [22]: 79.2 pg/mL and 55.0 pg/mL
- MFI (Bead name: CCL5/RANTES) [22]: 131.5 and 82.5
- conc/live cell (CCL5/RANTES) [22]: 12.4 pg/10^5 and 7.9 pg/10^5
